Results as given in patent US11779565B2, “Small organic molecules for use in the treatment of neuroinflammatory disorders” (THE MEDICAL RESEARCH, INFRASTRUCTURE AND HEALTH SERVICES …, priority 2017, dated 2023).

Target: T1, BMP-2 (Homo sapiens, UniProt P12643)
T1 construct: purchased R&D Systems
T1 sequence (P12643 283-396): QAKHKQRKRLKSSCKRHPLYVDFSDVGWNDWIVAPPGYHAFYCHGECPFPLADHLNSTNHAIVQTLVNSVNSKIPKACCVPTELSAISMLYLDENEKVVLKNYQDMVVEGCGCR
Test: ATDC5 cell based HTS bioassay: ALP production stimulated by BMP-2 and heparin
Design: species or system mouse
Conditions: inhibition of BMP-2-stimulated ALP in ATDC5 cells, 48 hours, tested at 0.62-10 μM
Description: Poly-L-lysine (Sigma-Aldrich) was added to 384-well plates and was removed after 30 min of incubation at RT. An assay medium containing DMEM/F12, 2% FBS, 100 units/ml penicillin, […] streptomycin (Biological industries) was added to each well. […] ATDC5 cells (Sigma-Aldrich) were harvested, re-suspended in assay medium and added to a final concentration of 2000 cells/well. Finally, heparin (Sigma-Aldrich) was added to a final concentration of 2 μg/ml. The cells were incubated for 48 hours at 37° C. with 5% CO2 in a humidified chamber in the presence or absence of potential small molecule inhibitors of BPM-2. After incubation, ALP levels and cell viability were determined using a completely automated protocol. Cells were washed with PBS, lysed using a lysis buffer containing 0.2% Triton X-100 in PBS supplemented with a protease inhibitor cocktail (Sigma-Aldrich) and incubated for 25 min at RT. ALP level was then determined by addition of CDP-Star® chemiluminescent substrate (Sigma-Aldrich) and measurement of luminescence after incubation for 25 min at RT in the dark. Cell viability was finally determined by addition of CellTiter-Glo® reagent (Biological Industries) and luminescence measurement after 10 min of incubation.
An ATDC5 cell based assay for assessing structure-function relationship of BMP-2 and BMP receptor IA was originally described in Keller et al (Nature Structural & Molecular Biology 2004 11, 481-488). In order to screen a large volume of potential therapeutic agents the ATDC5 cell based bioassay for detecting BMP inhibition was adapted for use in high throughput screening. The bioassay is based on the stimulation of alkaline phosphatase (ALP) production in mouse ATDC5 cells by administration of BMP-2 and heparin, and measurement of ALP levels in the presence of the potential inhibitors. […] This was achieved by using CellTiter-Glo® Luminescent Cell Viability Assay for assessing the cells' viability after the luminescent signal by CDP-Star® has faded. The simultaneous assessment of both ALP production and cells' viability was necessary since potentially toxic tested small molecules may lead to reduced ALP levels by cellular cytotoxicity rather than by interference with BMP-2 signaling. […] Particulars of the bioassay are detailed in the Experimental procedures section above.
A library of small molecules (SM) was screened using the High Throughput Screening bioassay described above. About 7600 SMs were screened, from the Maybridge library, which consists of organic “drug-like” compounds, using the pre-plated HitFinder™ Collection. […] The SM were tested at various concentrations, i.e. at 0.62 μM, 1.25 μM, 2.5 μM, 5 μM and 10 μM.

| SMILES | IC50 |
| --- | --- |
| c1ccc(C2=NNC(c3ccccc3)=NN2)cc1 [SM2, 1,4-Dihydro-3,6-diphenyl-1,2,4,5-tetrazine] | 8.5 µM |
| CCOC(=O)c1c(NC(=O)c2ccc([N+](=O)[O-])o2)nc(SC)n1Cc1cccs1 [SM3] | 2.6 µM |
| O=C1c2cccc3cc([N+](=O)[O-])cc(c23)C(=O)N1c1ccc(S(=O)(=O)Nc2ccc(C(F)(F)F)cc2)cc1 [SM4, 4-(5-nitro-1,3-dioxobenzo(de)isoquinolin-2-yl)-N-[4-(trifluoromethyl)phenyl]benzenesulfonamide] | 10 µM |
| CC(=O)NC(=O)CCSc1ccccc1C(=O)NC(C)=O [SM5, N1-acetyl-2-([3-(acetylamino)-3-oxopropyl]thio)benzamide] | 3.8 µM |
| C/C(=N\NC(=S)NC(C)(C)C)c1ccc(Oc2c(Cl)cncc2Cl)cc1 [SM8, 1-tert-butyl-3-[E-1-(4-(3,5-dichloropyridin-4-yl)oxyphenyl]ethylideneamino)thiourea] | 2.8 µM |

Tested on: P19 cells
Test: In vitro differentiation assay of P19 cells (MAP-2 positive neurons)
Format: cell-based, murine
Conditions: RA stimulation alone (5×10^−7 M), day 8
Description: P19 cells were grown in a-minimum essential medium (aMEM) (Gibco) containing 7.5% calf serum, 2.5% fetal calf serum, and 0.4 μl/ml penicillin—streptomycin (Gibco), at 37° C., 5% CO2. Cells were replenished with fresh medium every 48 h.
The medium, including RA, BMP supplements and SMs, was replenished after 48 h. After 4 days, aggregates which formed during RA treatment were dispersed enzymatically (0.05% v/v trypsin-0.02% v/v EDTA) and mechanically and plated in tissue culture grade dishes. At this stage, cells were cultured in RA-, BMP- and SM-free medium, which was refreshed every 48 h. MAP-2 positive neurons were examined at day 8 (i.e., day 4 post-RA treatment) by immunofluorescence. Briefly, at day 7, cells were re-cultured in 24 well-plates with cover slips at a final concentration of 5×10^4 cells/well. On day 8, cells were washed with PBS, fixed with PFA 4% for 15 min, permeabilized with 0.5% Triton Tx, blocked with 10% FCS, 0.1% BSA and 0.05% Tween for 30 min, and stained with MAP2 rabbit mAb (1:100, D5G1, Cell Signaling) for 1 hr. The second antibody step was performed by labeling with Alexa Fluor® 488-conjugated IgG antibody to rabbit for 1 h (1:1000; Molecular Probes USA).
Next, the effect of the small molecules on neurogenesis in a P19 differentiation model was measured. […] Neuronal differentiation is marked by the expression of the neuronal marker MAP-2, while the addition of BMP-2 reduces the levels of this marker. Addition of the murine anti-BMP-2/4 monoclonal antibody reverses the effect of BMP-2 and induces acquisition of neuronal phenotype. Thus, the effect of SM1, SM7 and SM9 on the expression of the neuronal marker MAP-2 in P19 cells was examined in the presence of RA and BMP-2. Three concentrations of the molecules were tested: 0.625 μM, 1.25 μM and 2.5 μM.

| SMILES | MAP-2+ cells |
| --- | --- |
| CC1=C(/C=C/C(C)=C/C=C/C(C)=C/C(=O)O)C(C)(C)CCC1 [RA, all-trans-retinoic acid, reference compound] | 73.8±6.5% |
